The test concerns potassium ion channel current of the DRG neurons. Type of test: cell-based, SD rats. To be noted: 5 mM.

Consider `Nc1ccncc1` [4AP, 4-aminopyridine], for which the Current inhibition rate is on record as 0.338 and the “Current recorded after loading” value came out at 0.9766 nA.
